Test systems include SK-MEL-2 melanoma; 786-0 renal; DLD-1 colon; RPMI-8226 leukemia; K-562 leukemia; T-47D breast; LOX IMVI melanoma; A498 renal; DMS 114 small cell lung; ACHN renal.
Common to all, as to test: DTP human tumour cell line panel, 48 h

For orientation: TGI means the concentration at which net growth stops. High values mean less potent growth arrest, low ones more potent growth arrest. For orientation: GI50 means the concentration at which growth is held to half of that of the control.

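Grown in 96-well plates, cells were treated for 48 hours with each compound at five concentrations. Insufficient inhibition: endpoint recorded as highest concentration tested. GI50 marks 50% less growth. The concentration for full growth arrest is given as TGI.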 A value given as a limit tells only on which side of the number the result lay.

Regarding `Nc1ccc(C(=O)N/C(=C\c2cccc([N+](=O)[O-])c2)c2nc3[nH]c(=S)[nH]c(=O)c3[nH]2)cc1`, the TGI in the experiment on SK-MEL-2 melanoma was above 100 µM; in the experiment on 786-0 renal it was above 93.1 µM; in the experiment on DLD-1 colon it was above 100 µM; in the experiment with RPMI-8226 leukemia, above 100 µM; with K-562 leukemia, above 100 µM; in the experiment with T-47D breast, above 89.5 µM. Moreover, the total growth inhibition concentration (TGI) in the experiment on LOX IMVI melanoma, in the experiment with A498 renal, in the experiment on DMS 114 small cell lung and in the experiment on ACHN renal was above 100 µM each time.

For `ClC/C=C/COC1CCCCO1` (stereo not drawn), the TGI with SK-MEL-2 melanoma, in the experiment with 786-0 renal, in the experiment with DLD-1 colon, with RPMI-8226 leukemia, in the experiment with K-562 leukemia and in the experiment on A498 renal was above 100 µM throughout. Moreover, the TGI in the experiment on DMS 114 small cell lung and in the experiment with ACHN renal was above 100 µM in each case.

For the compound `CN(c1ccc(C(=O)c2ccc(N(C)S(C)(=O)=O)cc2)cc1)S(C)(=O)=O`, the TGI in the experiment on SK-MEL-2 melanoma, with 786-0 renal, with DLD-1 colon, with RPMI-8226 leukemia, with K-562 leukemia and with A498 renal was above 100 µM each time. In addition, the total growth inhibition concentration (TGI) was 61.1 µM in the experiment with DMS 114 small cell lung and above 100 µM in the experiment on ACHN renal.

With `c1ccc2c3c([nH]c2c1)[C@H]1C2CCCCN2CN1CC3` (stereo partly drawn), the TGI in the experiment on SK-MEL-2 melanoma, in the experiment on 786-0 renal, with DLD-1 colon, with RPMI-8226 leukemia, in the experiment on K-562 leukemia and in the experiment with A498 renal was above 100 µM each time. In addition, the total growth inhibition concentration (TGI) in the experiment on DMS 114 small cell lung and in the experiment on ACHN renal was above 100 µM throughout.

As to `Cc1cccc(C)c1NC(=O)C1=NC(=S)NC(c2ccccc2)C1c1nc2ccccc2s1` (stereo not drawn), the total growth inhibition concentration (TGI) in the experiment on SK-MEL-2 melanoma, with 786-0 renal, in the experiment with DLD-1 colon, in the experiment on K-562 leukemia, in the experiment with A498 renal and in the experiment with DMS 114 small cell lung was above 100 µM throughout. The same compound gave a TGI in the experiment with ACHN renal above 100 µM.

For `CC(=O)[O-].Cn1ccnc1CNCc1nccn1C.[Cu+2].[O-][Cl+3]([O-])([O-])[O-]`, the GI50 in the experiment on 786-0 renal, in the experiment on DLD-1 colon, in the experiment on RPMI-8226 leukemia, with K-562 leukemia, in the experiment on LOX IMVI melanoma and in the experiment with DMS 114 small cell lung was above 100 µM throughout. Also, the TGI in the experiment with 786-0 renal, in the experiment with DLD-1 colon, with RPMI-8226 leukemia, in the experiment with K-562 leukemia, in the experiment with LOX IMVI melanoma and in the experiment with DMS 114 small cell lung was above 100 µM each time.

Take `O=c1[nH]c2ccccc2nc1/C=C(\O)c1ccccc1O`: the concentration for total growth inhibition (TGI) in the experiment with SK-MEL-2 melanoma, in the experiment with 786-0 renal, in the experiment with DLD-1 colon, with RPMI-8226 leukemia, in the experiment on K-562 leukemia and with LOX IMVI melanoma was above 100 µM in each case. Also, the concentration for total growth inhibition (TGI) in the experiment on A498 renal, in the experiment on DMS 114 small cell lung and in the experiment on ACHN renal was above 100 µM in each case.

Regarding `C[N+](C)(C)CC(=O)N/N=C(/C(=O)Nc1ccc(Br)cc1)C1C(=O)NC(=O)NC1=O`, the concentration for total growth inhibition (TGI) in the experiment with SK-MEL-2 melanoma, in the experiment on 786-0 renal, in the experiment with DLD-1 colon, in the experiment with RPMI-8226 leukemia, in the experiment on K-562 leukemia and in the experiment with LOX IMVI melanoma was above 100 µM each time. The TGI with A498 renal, in the experiment on DMS 114 small cell lung and in the experiment with ACHN renal was above 100 µM each time.

As for `CCc1cccc(C)c1NC(=O)C(=O)CC(=O)c1ccc(Cl)s1`, the TGI in the experiment on SK-MEL-2 melanoma, in the experiment with 786-0 renal, with DLD-1 colon, with K-562 leukemia, in the experiment with LOX IMVI melanoma and in the experiment with A498 renal was above 100 µM each time. In the experiment with ACHN renal, this compound came in with a TGI above 100 µM.

Turning to `CCOC(=O)Oc1cc2c(c(OC)c1OC)-c1ccc(OC)c(=O)cc1C(NC(C)=O)CC2` (stereo not drawn), the TGI with SK-MEL-2 melanoma is above 17.1 µM; in the experiment on 786-0 renal it was above 100 µM; in the experiment on RPMI-8226 leukemia, 70.6 µM; in the experiment on K-562 leukemia, above 81.3 µM; in the experiment with T-47D breast, above 100 µM; in the experiment on LOX IMVI melanoma, above 100 µM. The TGI is 3.38 µM in the experiment with A498 renal, 0.0301 µM in the experiment on DMS 114 small cell lung and above 100 µM with ACHN renal.

Regarding `CCOP(=O)(OCC)C1CCCOC1=O` (stereo not drawn), the TGI with SK-MEL-2 melanoma, in the experiment with 786-0 renal, in the experiment on DLD-1 colon, in the experiment with RPMI-8226 leukemia, with K-562 leukemia and in the experiment with LOX IMVI melanoma was above 100 µM each time. Besides, the concentration for total growth inhibition (TGI) with A498 renal, in the experiment with DMS 114 small cell lung and in the experiment with ACHN renal was above 100 µM in each case.

With `CC(C)(C)c1ccc(Oc2ccc(N)cn2)cc1`, the GI50 is above 100 µM with SK-MEL-2 melanoma; 16.8 µM in the experiment on 786-0 renal; 1.99 µM in the experiment on RPMI-8226 leukemia; 30.1 µM with K-562 leukemia; 26.2 µM in the experiment with T-47D breast; 60.1 µM in the experiment with LOX IMVI melanoma. Also, the GI50 in the experiment on A498 renal is 11.7 µM; with ACHN renal, above 100 µM. Further, the TGI in the experiment on SK-MEL-2 melanoma was above 100 µM; in the experiment on 786-0 renal, above 100 µM; in the experiment on RPMI-8226 leukemia, 41.2 µM; with K-562 leukemia it was above 100 µM; with T-47D breast, above 100 µM; with LOX IMVI melanoma it was above 100 µM. The TGI in the experiment with A498 renal and with ACHN renal was above 100 µM each time.

Regarding `CCOC(=O)c1cc2c(cc1Cl)SC(=Nc1ccccc1)N(S(=O)(=O)c1ccc(Cl)cc1)S2(=O)=O`, the GI50 was 12.1 µM in the experiment with SK-MEL-2 melanoma; 13.5 µM in the experiment with 786-0 renal; 4.26 µM in the experiment with RPMI-8226 leukemia; 15 µM with K-562 leukemia; 3.84 µM in the experiment with T-47D breast; 3.17 µM in the experiment with LOX IMVI melanoma. For the same compound, the GI50 with A498 renal is 11.4 µM; in the experiment on ACHN renal, 14.5 µM. For the same compound, the TGI in the experiment with SK-MEL-2 melanoma was 30.4 µM; in the experiment with 786-0 renal it was 27.5 µM; with RPMI-8226 leukemia it was 19.4 µM; in the experiment on K-562 leukemia it was 38.7 µM; in the experiment with T-47D breast, 23.4 µM; in the experiment on LOX IMVI melanoma, 15 µM. Moreover, the TGI in the experiment with A498 renal is 24.6 µM; with ACHN renal, 28.8 µM.

Values taken from PubChem BioAssay (NCI).
